Read-outs that look alike come from different tables or passages of the source.
Columns and labels:
[1] = tested on: cell line ET (luc-ubi-neo/ET), Huh7 human hepatoma cell line
HCV 1b replicon = test: Secondary HCV antiviral assay: qRT-PCR; type: cell-based
[2] = Metabolic stability assay; type: in vitro ADME, human
[3] = tested on: cell line ET (luc-ubi-neo/ET), Huh7 human hepatoma cell line; test: Cytotoxicity in secondary assay; settings: cellular ribosomal RNA as cytotoxicity control
[4] = cited from earlier work
in vitro = settings: human
[5] = Cytotoxicity in secondary assay; settings: human
[6] = qRT-PCR (TaqMan) of HCV RNA, single assay, quadruplicate wells
[7] = human liver microsomes, 0.1 µM, NADPH-regenerating system, 37 °C, mean of two independent experiments

| Compound | CC50 [1] [µM] | EC50 (HCV 1b replicon; [6]) [µM] | EC90 (HCV 1b replicon; [6]) [µM] | Clint ([2]; human, microsomes) [µl/min/mg protein] | T1/2 ([2]; human, microsomes) [min] | CC50 [3] [µM] | also measured |
| --- | --- | --- | --- | --- | --- | --- | --- |
| C[C@@]1(O)[C@H](O)[C@@H](CO)O[C@H]1n1ccc(=O)[nH]c1=O [2’-C-Me-uridine, reference compound] | > 100 | – | – | – | – | – | – |
| COC(=O)CC[C@H](NP(=O)(OC[C@H]1O[C@@H](n2ccc(=O)[nH]c2=O)[C@](C)(O)[C@@H]1O)Oc1ccccc1)C(=O)OC (stereo partly drawn) [31a, 2′-C-Methyl-uridine-5′-[phenylbis(methoxy-L-glutamyl)]phosphate] | > 20 | – | – | – | – | – | – |
| CC(C)CCOC(=O)CC[C@H](NP(=O)(OC[C@H]1O[C@@H](n2ccc(=O)[nH]c2=O)[C@](C)(O)[C@@H]1O)Oc1ccccc1)C(=O)OCCC(C)C (stereo partly drawn) [31b, 2′-C-Methyl-uridine-5′-[phenylbis(isoamyl-L-glutamyl)]phosphate] | > 20 | 0.01 | 0.13 | 844.60 | 8 | 9.98 | – |
| COC(=O)[C@H](COCc1ccccc1)NP(=O)(OC[C@H]1O[C@@H](n2ccc(=O)[nH]c2=O)[C@](C)(O)[C@@H]1O)Oc1ccccc1 (stereo partly drawn) [31c, 2′-C-Methyl-uridine-5′-[phenyl(α-methoxy-β-O-benzyl-L-serine)]phosphate] | > 20 | – | – | – | – | – | – |
| CCCCCOC(=O)[C@H](COCc1ccccc1)NP(=O)(OC[C@H]1O[C@@H](n2ccc(=O)[nH]c2=O)[C@](C)(O)[C@@H]1O)Oc1ccccc1 (stereo partly drawn) [31d, 2′-C-Methyl-uridine-5′-[phenyl(α-amyl-β-O-benzyl-L-serine)]phosphate] | 5.89 | – | – | 496.80 | 14 | – | – |
| CC(C)CCOC(=O)[C@H](COCc1ccccc1)NP(=O)(OC[C@H]1O[C@@H](n2ccc(=O)[nH]c2=O)[C@](C)(O)[C@@H]1O)Oc1ccccc1 (stereo partly drawn) [31e, 2′-C-Methyl-uridine-5′-[phenyl(α-isoamyl-β-O-benzyl-L-serine)]phosphate] | 8 | 0.01 | 0.08 | – | – | 4.59 | – |
| COC(=O)[C@H](COC(=O)C(C)C)NP(=O)(OC[C@H]1O[C@@H](n2ccc(=O)[nH]c2=O)[C@](C)(O)[C@@H]1O)Oc1ccccc1 (stereo partly drawn) [31f, 2′-C-Methyl-uridine-5′-[phenyl(α-methoxy-β-O-isobutyryl-L-serine)]phosphate] | > 20 | – | – | – | – | – | – |
| CCCCCOC(=O)[C@H](COC(=O)C(C)C)NP(=O)(OC[C@H]1O[C@@H](n2ccc(=O)[nH]c2=O)[C@](C)(O)[C@@H]1O)Oc1ccccc1 (stereo partly drawn) [31g, 2′-C-Methyl-uridine-5′-[phenyl(α-amyl-β-O-isobutyryl-L-serine)]phosphate] | 6.79 | – | – | – | – | – | – |
| CC(C)CCOC(=O)[C@H](COC(=O)C(C)C)NP(=O)(OC[C@H]1O[C@@H](n2ccc(=O)[nH]c2=O)[C@](C)(O)[C@@H]1O)Oc1ccccc1 (stereo partly drawn) [31h, 2′-C-Methyl-uridine-5′-[phenyl(α-isoamyl-β-O-isobutyryl-L-serine)]phosphate] | 7.51 | 0.02 | 0.13 | 763.70 | 9 | 5.28 | – |
| CC(C)CCOC(=O)[C@@H](NP(=O)(OC[C@H]1O[C@@H](n2ccc(=O)[nH]c2=O)[C@](C)(O)[C@@H]1O)Oc1ccccc1)[C@@H](C)OCc1ccccc1 (stereo partly drawn) [31i, 2′-C-Methyl-uridine-5′-[phenyl(isoamyl-O-benzyl-L-threonine)]phosphate] | > 20 | 0.04 | 0.69 | 699.00 | 10 | 7.27 | – |
| CC(C)CCOC(=O)[C@@H](NP(=O)(OC[C@H]1O[C@@H](n2ccc(=O)[nH]c2=O)[C@](C)(O)[C@@H]1O)Oc1ccccc1)[C@@H](C)OC(=O)C(C)C (stereo partly drawn) [31j, 2′-C-Methyl-uridine-5′-[phenyl(isoamyl-O-isobutyryl-L-threonine)]phosphate] | 11.5 | – | – | – | – | – | – |
| CC(C)CCOC(=O)[C@H](Cc1ccc(OC(=O)C(C)C)cc1)NP(=O)(OCC1OC(n2ccc(=O)[nH]c2=O)C(C)(O)C1O)Oc1ccccc1 (stereo partly drawn) [31k, 2′-C-Methyl-uridine-5′-[phenyl(isoamyl-O-isobutyryl-L-tyrosine)]phosphate] | – | 0.04 | 0.69 | – | – | 18.4 | Clint [2, 7]: 679.60 µl/min/mg protein; T1/2 [2, 7]: 10 min; CC50 ([1]; concentration decreasing cell viability by 50%, 72 hrs, CytoTox-ONE): > 20 µM |
| CC(C)OC(=O)[C@H](C)N[P@](=O)(OC[C@H]1O[C@@H](n2ccc(=O)[nH]c2=O)[C@](C)(F)[C@@H]1O)Oc1ccccc1 [Sofosbuvir, reference compound] | – | – | – | – | – | – | EC50 (HCV 1b replicon; Hepatitis C virus): 0.07 µM; EC90 (HCV 1b replicon; Hepatitis C virus): 0.28 µM; cytotoxicity (devoid up to) [4]: > 100 µM; CC50 (in vitro): > 5 µM; CC50 [5]: > 5 µM |

From publication PMC5079539 (Organic & biomolecular chemistry, 2016)
